Tests used:
[1] = tested on: Balb/c male mice, CAIA model; type: in vivo, mouse; details: for ankle thickness: C4BP(β−) 50 μg sc d3 and d5, dexamethasone 1 mg/kg po d5-11, Enbrel 30 mg/kg sc d5-11; for body weight vs CAIA control group: mouse, in vivo
Text: Collagen-antibody induced arthritis (CAIA) is a simple mouse model of human rheumatoid arthritis (RA) induced by the systemic administration of a cocktail of monoclonal antibodies directed against conserved auto-antigenic collagen type II epitopes, followed by a single injection of lipopolysaccharide (LPS). CAIA is a useful model to study the effector inflammatory phase of arthritis without involving the priming phase of the immune response. The murine CAIA model shares several clinical, immunological and pathological features with RA. Therefore, this model is useful to study the pathogenic mechanisms involved in RA disease as well as for testing new therapies.
Balb/c male mice aged 7-8 weeks were supplied by Envigo. The animals were acclimated during 12 days. The animals were maintained in an environmentally controlled room with ventilation, temperature (22±2° C.), relative humidity (35-65%), and cycle light/dark (12 h/12 h). The animals were housed in groups of 3-5 animals/cage. The maintenance diet was supplied by Harlan Interfauna Ibérica, S. L. (“2014 Harlan Teklad Global Diets”) and they were feed diet and water ad libitum.
Plasmatic C4BP(β−) was supplied at a concentration of 6.2 mg/ml. C4BP(β−) solutions were prepared to the desired concentration 0.33 mg/ml (for 50 μg doses) by dilution with Dulbecco's phosphate-buffered saline (DPBS) of C4BP(β−) 6.2 mg/ml stock solution.
Two reference compounds were used: dexamethasone (Sigma, Ref. D1756) and Enbrel® (etanercept) (Pfizer, Ref. 655950).
Reference compound dexamethasone was dissolved in vehicle (0.1% Tween-80+99% carboxymethyl cellulose (CMC) (0.5% w/v) in water at a concentration of 0.1 mg/ml.
Enbrel® was prepared at 6 mg/ml in DPBS by dilution of 50 mg/mL stock solution.
Experimental Procedure Day 0: Arthritis Induction
On day 0, animals for experimental group C4BPd3 were randomly selected (n=8) and identified using tail code numbers and weighted.
Each mouse was sensitized by the administration of 2 mg anti-type II collagen antibodies cocktail (ArthritoMAB™ cocktail solution, 0.2 mL, i.v., day 0) in the caudal vein.
Day 3: LPS Synchronization
Animals were intraperitoneally administered with 0.1 mL of LPS solution (0.7 mg/ml, 70 μg/animal).
50 μg of C4BP(β−) were administered subcutaneously at day 3 to treatment group C4BPd3.
50 μg of C4BP(β−) were administered subcutaneously at day 5 to treatment group C4BPd3.
Day 5: Animal Distribution
On day 5 after sensitization, the rest of the animals developing clinical signs of arthritis (n=18) were evaluated and distributed in base of CAIA+incidence. Animals were homogeneously randomized (arthritis score) into the CAIA control group, dexamethasone (1 mg/kg at days 5-11, p.o.) and Enbrel®-treated groups (30 mg/kg at days 5-11, s.c.) (n=6). Animals were identified using tail code numbers and weighted.
Group 2 was not included in the distribution because of the previous test item administration.
The arthritis score was determined using the criteria of Table 9.
Treatment: • C4BPd3 group: 50 μg of C4BP(β−) were subcutaneously injected to animals on days 3 and 5. Volume: 0.150 mL. • Reference compound treatments and CAIA control groups (days 5-11): • Enbrel®: 30 mg/kg of Enbrel® was subcutaneously administered to Enbrel group from days 5 to 11. Volume: 5 mL/kg. • Dexamethasone: 1 mg/kg dexamethasone was orally administered to dexamethasone group from days 5 to 11. Volume: 10 mL/kg. • CAIA control group: 0.150 mL of DPBS was subcutaneously administered from days 5 to 11. Arthritis Monitoring:
Body weights were registered daily from days 0-12 in C4BPd3 and from days 5-12 in CAIA control, dexamethasone and Enbrel® groups. Arthritis scores were determined by the same observer in order to avoid observer bias.
The study was finished at day 12.
Animals were anesthetized with isoflurane. Ankles and wrists thickness were measured using a dial thickness gauge. Serum samples were collected and stored at −20° C. […]

[2] = tested on: human monocyte-derived DCs; test: Immunomodulatory activity over human monocyte-derived DCs: CD83/CD86 surface expression by flow cytometry after LPS maturation; type: cell-based; details: Example 1
Protocol: In Vitro Functional Assessment of the Immunomodulatory Activity of Full-Length C4BP(β−) and C4BP(β−) Variants Over DCs
The inventors used for the in vitro study both C4BP(β+) (WT) and recombinant C4BP(β−) isoforms, and the above-referred mutants or variants: Mutant 1 and Mutant 2. C4BP(β+) isoforms refer to the major C4BP α7β1 plus the minor C4BP α6β1 isoforms (both in complex with ProS) purified from pooled human plasma.
RPMI 1640 was supplemented with 100 μg/ml of streptomycin, 100 IU/ml of penicillin, 2 mM L-glutamine (all from Invitrogen, Carlsbad, CA) and 10% heat-inactivated fetal bovine serum (Linus, Cultek, Spain) (complete medium), unless otherwise stated.
Peripheral blood mononuclear cells (PBMCs) were obtained from buffy coat preparations collected from healthy donors from the Blood and Tissue Bank (Barcelona, Spain) after Ficoll-Paque™ density centrifugation (GE Healthcare Bio-Sciences AB; Uppsala, Sweden). For surface phenotype determination, monocytes were plated at 1×10^6 cells/ml in 60 mm culture plates (Corning, Spain), in RPMI 1640 medium without serum, and allowed to adhere for 2 h at 37° C. in 5% CO2. The non-adherent cells were removed by washing in PBS.
Monocyte-derived DCs were generated supplementing the monocyte cultures with complete RPMI 1640 medium plus GM-CSF (800 UI/ml) and IL-4 (500 UI/ml) (both from Gentaur, Kampenhout, Belgium) at day 0 and day 3 of culture. For DC maturation, at day 5 iDCs were further stimulated for 48 h with 5 μg/ml LPS (Escherichia coli 055.B5, Sigma L2880, Copenhagen, Denmark).
Staining using the fluorescent dye 7-amino-actinomycin D (7-AAD) (BD Pharmigen) and flow cytometry analysis was employed to assess the viability status of C4BP-treated and untreated DCs.
Cell surface phenotypes were analyzed by flow cytometry using the following mAbs: FITC-conjugated anti-CD83 (HB15a) and PE-conjugated anti-CD86 (HA5.2B7) (all from Beckman-Coulter). The respective isotype controls FITC-conjugated anti-IgG2b (H2) and PE-conjugated anti-IgG2b (H2), were from the same commercial sources. After washing with PBS, cells were subsequently stained with 3 μl mAb/10^5 cells in 100 μl of FACS buffer (PBS containing 1% BSA and 0.1% sodium azide) for 20 min at room temperature. To exclude dead cells and debris, DCs were gated according to forward scatter (FSC) and side scatter (SSC) parameters. Stained cells were analyzed using a FACSCalibur (Becton Dickinson, Franklin Lakes, NJ) equipped with CellQuestPro software (Becton Dickinson).
In Vitro Functional Assessment of C4BP(β−) Immunomodulatory Activity Over DCs
The inventors used for the in vitro study both C4BP(+) and C4BP(β−) isoforms. C4BP(3+) isoforms refer to the major C4BP α7β1 plus the minor C4BP α6β1 isoforms (both in complex with ProS) purified from pooled human plasma, as previously described (Dahlbäck B. 1983. Biochem J., 209:847-56).

Compound	inhibition of arthritis score vs. CAIA controls AUC ([1]; C4BP(β−) 50 μg sc days 3 and 5, dexamethasone 1 mg/kg po days 5-11) [%]	ankle thickness ([1]; day 12) [mm]	body weight vs CAIA control group [1]	inhibition of arthritis score vs. CAIA controls d12 ([1]; Enbrel 30 mg/kg sc days 5-11) [%]	wrist thickness vs. CAIA control ([1]; day 12, regimens as Table 8)	arthritis scores / progression of arthritis ([1]; regimens as Table 8, vs CAIA control group)	immunomodulatory activity over DCs [2]
C[C@@H]1C[C@H]2[C@@H]3CCC4=CC(=O)C=C[C@]4(C)[C@@]3(F)[C@@H](O)C[C@]2(C)[C@@]1(O)C(=O)CO [dexamethasone]	73	2.63±0.05	No remarkable differences				
etanercept [Enbrel]		2.73±0.04	No remarkable differences	47	No changes	progressive reduction of arthritis scores over time	
C4BP(CCP5-CCP8)(α7β0) [Mutant 1]							retains the immunomodulatory activity over DCs

From patent US12006343B2, “C4BP-based compounds for treating immunological diseases” (FUNDACIO INSTITUT D'INVESTIGACIO BIOMEDICA DE BELLVITGE …, priority 2017, dated 2024)
